Experimental findings from patent US8513289B2, “P38 kinase inhibiting agents” (Merck Sharp & Dohme Corp., priority 2009, dated 2013) are described below.

For one test, the target named is T1, p38-α (Homo sapiens, UniProt Q16539).
T1 construct: purchased Millipore
Briefly: p38 kinase assay, p38-α with peptide substrate (Caliper LabChip). In kind it is biochemical. Particulars: read-out: IC50 p38a*peptide. As for the experimental part: Alternatively, p38 kinase assays were performed in a reaction volume of 70 µL in a 384-well plate, at 30° for […] under the following conditions: 50 mM Hepes, pH 7.4, 10 mM MgCl2, 1 mg/ml FA Free BSA, 1 mM DTT, 10 μM ATP, 10 μM p38 peptide [Caliper Life Sciences FL-Peptide 8 (5-FAM-IPTSPITTTYFFEKKK-COOH)] and 5.7 nM p38-α (Millipore), or 14.3 nM unactivated MAPKAP kinase-2, 0.18 nM p38-α (Millipore) and 2 uM RSK peptide [Caliper Life Sciences FL-Peptide 11 (5-FAM-KKLNRTLSVA-COOH)]. Serial dilutions of compounds were added to each reaction in 700 nL DMSO. 700 nL of DMSO was added to the control wells of the reaction plate as the no inhibitor control for each inhibitor titration. The reaction was terminated by the addition of 15 μL of a 100 mM EDTA. Product formation was analyzed using the Caliper LabChip 3000. The Separation buffer contained 100 mM HEPES pH 7.5, 0.015% Brij-35, 2.5% Coating Reagent #3 (Caliper Life Sciences) and 10 mM EDTA. Calculation of the substrate product ratios are performed using the HTS Well Analyzer software provided by Caliper Life Sciences and the percent inhibition at each compound concentration is determined.

In a further test the test system is hWB. Briefly: IC50 hWB (TNF-α release assay). In kind it is cell-based. Conditions: Homo sapiens.

T1 sequence (Q16539 whole entry): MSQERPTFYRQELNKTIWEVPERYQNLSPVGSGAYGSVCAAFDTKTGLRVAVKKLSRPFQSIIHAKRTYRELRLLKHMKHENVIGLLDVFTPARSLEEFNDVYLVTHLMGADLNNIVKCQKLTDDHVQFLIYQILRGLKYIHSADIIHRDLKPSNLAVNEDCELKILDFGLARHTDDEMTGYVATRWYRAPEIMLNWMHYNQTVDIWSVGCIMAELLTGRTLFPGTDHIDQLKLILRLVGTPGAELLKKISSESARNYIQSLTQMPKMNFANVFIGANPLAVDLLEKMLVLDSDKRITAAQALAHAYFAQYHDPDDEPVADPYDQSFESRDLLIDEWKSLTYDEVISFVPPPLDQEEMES

For the compound `O=C(NCc1nnc(-c2cccc(F)c2)s1)c1cc(C(=O)c2c(F)cc(F)cc2F)c[nH]1` [Example 9, N {[5-(3-fluorophenyl)-1,3,4-thiadiazol-2-yl]methyl}-4-(2,4,6-trifluorobenzoyl)-1H-pyrrole-2-carboxamide], the IC50 (in general, the midpoint of a concentration-inhibition curve) at p38-α turned out to be 462 nM; with hWB it was 3490 nM.
On the same counts, the results for `O=C(NCc1nnc(-c2n[nH]c3ccccc23)s1)c1cc(C(=O)c2c(F)cc(F)cc2F)c[nH]1` [Example 28, N-{[5-(1H-indazol-3-yl)-1,3,4-thiadiazol-2-yl]methyl}-4-(2,4,6-trifluorobenzoyl)-1H-pyrrole-2-carboxamide] are 69 nM and 360 nM.
In the same order, the values of `O=C(NCc1nnc(-c2cnccn2)s1)c1cc(C(=O)c2c(F)cc(F)cc2F)c[nH]1` [Example 21, N-[(5-pyrazin-2-yl-1,3,4-thiadiazol-2-yl)methyl]-4-(2,4,6-trifluorobenzoyl)-1H-pyrrole-2-carboxamide] are 78 nM and 815 nM.
On the same counts, the results for `Cc1nnc(CNC(=O)c2cc(C(=O)c3c(F)cc(F)cc3F)c[nH]2)s1` [Example 1, N-[(5-methyl-1,3,4-thiadiazol-2-yl)methyl]-4-(2,4,6-trifluorobenzoyl)-1-H-pyrrole-2-carboxamide] are 167 nM and 467 nM.
With `O=C(NCc1nnc(-c2ccc[nH]c2=O)s1)c1cc(C(=O)c2c(F)cc(F)cc2F)c[nH]1` [Example 35, N-{[5-(2-oxo-1,2-dihydropyridin-3-yl)-1,3,4-thiadiazol-2-yl]methyl}-4-(2,4,6-trifluorobenzoyl)-1H-pyrrole-2-carboxamide], the results for the IC50 at p38-α and in the test on hWB were 37.5 nM and 168 nM, respectively.
On the same counts, the results for `CCCCc1nnc(CNC(=O)c2cc(C(=O)c3c(F)cc(F)cc3F)c[nH]2)s1` [Example 2, N-[(5-butyl-1,3,4-thiadiazol-2-yl)-methyl]-4-(2,4,6-trifluorobenzoyl)-1-H-pyrrole-2-carboxamide] are 441 nM and 4220 nM.
In the same order, the values of `O=C(NCc1nnc(-c2ccc[nH]c2=O)s1)c1cc(Cc2c(F)cc(F)cc2F)c[nH]1` [Example 43, N-{[5-(2-oxo-1,2-dihydropyridin-3-yl)-1,3,4-thiadiazol-2-yl]methyl}-4-(2,4,6-trifluorobenzyl)-1H-pyrrole-2-carboxamide] are 259 nM and 1880 nM.
On the same counts, the results for `O=C(NCc1nnc(-c2cc3ncccn3n2)s1)c1cc(C(=O)c2c(F)cc(F)cc2F)c[nH]1` [Example 29] are 17 nM and 885 nM.
Regarding `O=C(NCc1nnc(-c2ccco2)s1)c1cc(C(=O)c2c(F)cc(F)cc2F)c[nH]1` [Example 15, N-{[5-(2-furyl)-1,3,4-thiadiazol-2-yl]methyl}-4-(2,4,6-trifluorobenzoyl)-1H-pyrrole-2-carboxamide], the IC50 at p38-α came to 98 nM; in the test on hWB it was 614 nM.
On the same counts, the results for `O=C(NCc1nnc(C2CCCC2)s1)c1cc(C(=O)c2c(F)cc(F)cc2F)c[nH]1` [Example 6, N-[(5-cyclopentyl-1,3,4-thiadiazol-2-yl)methyl]-4-(2,4,6-trifluorobenzoyl)-1H-pyrrole-2-carboxamide] are 1510 nM and 2870 nM.
For `O=C(NCc1nnc(-c2ccccc2)s1)c1cc(C(=O)c2c(F)cc(F)cc2F)c[nH]1` [Example 7, N-[(5-phenyl-1,3,4-thiadiazol-2-yl)methyl]-4-(2,4,6-trifluorobenzoyl)-1H-pyrrole-2-carboxamide], the IC50 at p38-α was 42 nM; in the test on hWB, 4350 nM.
In the same order, the values of `O=C(NCc1nnc(-c2ccn[nH]2)s1)c1cc(Cc2c(F)cc(F)cc2F)c[nH]1` [Example 45, N-{[5-(1H-pyrazol-5-yl)-1,3,4-thiadiazol-2-yl]methyl}-4-(2,4,6-trifluorobenzyl)-1H-pyrrole-2-carboxamide] are 354 nM and 1360 nM.
In the same order, the values of `Cc1cc(-c2nnc(CNC(=O)c3cc(C(=O)c4c(F)cc(F)cc4F)c[nH]3)s2)[nH]n1` [Example 20, N-{[5-(3-methyl-1H-pyrazol-5-yl)-1,3,4-thiadiazol-2-yl]methyl}-4-(2,4,6-trifluorobenzoyl)-1H-pyrrole-2-carboxamide] are 22 nM and 262 nM.
In the same order, the values of `O=C(NCc1nnc(-c2ccccn2)s1)c1cc(C(=O)c2c(F)cc(F)cc2F)c[nH]1` [Example 12, N-[(5-pyridin-2-yl-1,3,4-thiadiazol-2-yl)methyl]-4-(2,4,6-trifluorobenzoyl)-1H-pyrrole-2-carboxamide] are 66 nM and 570 nM.
Turning to `O=C(NCc1nnc(-c2ccc[nH]2)s1)c1cc(C(=O)c2c(F)cc(F)cc2F)c[nH]1` [Example 14, N-{[5-(1H-pyrrol-2-yl)-1,3,4-thiadiazol-2-yl]methyl}-4-(2,4,6-trifluorobenzoyl)-1H-pyrrole-2-carboxamide], the IC50 at p38-α came to 121 nM; with hWB, 1270 nM.
On the same counts, the results for `O=C(NCc1nnc(C2CC2)s1)c1cc(C(=O)c2c(F)cc(F)cc2F)c[nH]1` [Example 4, N-[(5-cyclopropyl-1,3,4-thiadiazol-2-yl)methyl]-4-(2,4,6-trifluorobenzoyl)-1H-pyrrole-2-carboxamide] are 73 nM and 330 nM.
